Article PMC11528044 (Nature Communications, 2024)

Tests used:
L. donovani CYP5122A1 = target: T1, L. donovani CYP5122A1 (Leishmania donovani, UniProt A0A3S7X0B6); assay: UV-Vis difference binding spectra of ligands with purified recombinant CYP5122A1
T1 sequence (A0A3S7X0B6 61-592): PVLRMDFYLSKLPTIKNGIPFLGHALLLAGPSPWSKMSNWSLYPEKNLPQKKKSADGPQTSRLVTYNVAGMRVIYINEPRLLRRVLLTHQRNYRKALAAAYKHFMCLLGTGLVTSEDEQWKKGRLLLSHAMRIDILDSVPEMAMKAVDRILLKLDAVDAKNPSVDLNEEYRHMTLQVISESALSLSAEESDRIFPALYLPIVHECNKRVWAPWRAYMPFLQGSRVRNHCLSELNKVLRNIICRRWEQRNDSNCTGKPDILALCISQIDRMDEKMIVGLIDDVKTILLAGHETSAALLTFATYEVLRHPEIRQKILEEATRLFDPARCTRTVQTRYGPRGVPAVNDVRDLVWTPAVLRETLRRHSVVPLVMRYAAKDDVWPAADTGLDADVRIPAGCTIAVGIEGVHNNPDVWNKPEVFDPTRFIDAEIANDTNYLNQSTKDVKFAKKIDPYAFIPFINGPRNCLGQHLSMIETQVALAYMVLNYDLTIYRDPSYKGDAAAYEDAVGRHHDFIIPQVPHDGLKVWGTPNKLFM

CYP5122A1 = settings: 50 μM substrate, TbCPR, NADPH, pH 6.2, 37 °C
L. donovani CYP51 = L. donovani CYP51 (Leishmania donovani, UniProt A0A3S7WRS7); assay: UV-Vis difference binding spectra of ligands with purified recombinant CYP51
Chain of L. donovani CYP51 (A0A3S7WRS7 32-480): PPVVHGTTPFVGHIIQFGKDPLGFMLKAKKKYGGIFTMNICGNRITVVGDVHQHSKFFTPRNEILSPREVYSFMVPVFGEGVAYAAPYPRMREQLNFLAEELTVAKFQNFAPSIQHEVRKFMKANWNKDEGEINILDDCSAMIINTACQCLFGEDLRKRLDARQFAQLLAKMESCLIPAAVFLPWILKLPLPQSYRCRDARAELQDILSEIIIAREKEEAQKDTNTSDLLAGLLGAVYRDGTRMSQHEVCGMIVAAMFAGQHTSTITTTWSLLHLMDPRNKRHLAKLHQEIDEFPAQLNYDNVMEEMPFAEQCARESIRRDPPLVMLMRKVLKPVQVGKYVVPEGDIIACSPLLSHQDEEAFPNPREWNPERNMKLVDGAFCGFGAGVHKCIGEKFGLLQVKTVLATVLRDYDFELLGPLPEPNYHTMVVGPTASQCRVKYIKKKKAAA

CYP51 = settings: 50 μM substrate, TbCPR, NADPH, pH 6.2, 37 °C
[1] = system: L. donovani LV82 promastigotes; assay: microbe, parasite or virus in culture; settings: Leishmania donovani, 72 h, read-out: EC50 (L. donovani)
[2] = system: L. donovani LV82 promastigote cultures; assay: Microscopic counts of LV82 promastigote cultures; assay type: cell-based, Leishmania donovani; settings: LV82 promastigotes, cell counts daily for three days
LdCYP51 [3] = target: T2, LdCYP51 (Leishmania donovani, UniProt A0A3S7WRS7); assay: biochemical
T2 sequence (A0A3S7WRS7 32-480): as above

LdCYP5122A1 [4] = target: T3, LdCYP5122A1 (Leishmania donovani, UniProt A0A3S7X0B6); assay: biochemical
T3 sequence (A0A3S7X0B6 61-592): T1 sequence (A0A3S7X0B6 61-592)

LdCYP5122A1 [5] = target: T3, LdCYP5122A1
[6] = system: sterol profile of LV82 promastigotes; assay: LC-MS/MS sterol analysis of inhibitor-treated LV82 promastigotes; assay type: cell-based, Leishmania donovani; settings: 20 μM clotrimazole vs. DMSO, 24 hr
[7] = system: L. donovani strain 1S2D promastigotes (Ld1S WT and CYP5122A1 mutants); settings: promastigote growth, 48 hours
[8] = system: intracellular L. major and L. amazonensis; settings: cited from earlier work
[9] = system: multiple strains of L. donovani and L. infantum promastigotes; settings: 1 μg/mL; cited from earlier work
LdCYP51 [10] = target: T2, LdCYP51; settings: 100 μM

Row | SMILES | Binding mode with CYP5122A1 (difference binding spectrum) (L. donovani CYP5122A1) | Binding mode with CYP51 (difference binding spectrum) (L. donovani CYP51) | EC50 [1] [nM] | SI (selectivity index) = IC50 against LdCYP5122A1/IC50 against LdCYP51 (LdCYP5122A1 [5]) | IC50 (LdCYP51 [3]) [nM] | IC50 (LdCYP5122A1 [4]) [nM] | other results
1 | c1ccc(-c2ccc(C(c3ccccc3)n3ccnc3)cc2)cc1 (stereo not shown) [Bifonazole] |  |  | 12000 ± 1000 | 5.7 | 57 ± 8 | 330 ± 70 | 
2 | Clc1ccc(CCC(Cn2ccnc2)Sc2c(Cl)cccc2Cl)cc1 (stereo not shown) [Butoconazole] |  |  | 1900 ± 400 | 4.4 | 73 ± 8 | 320 ± 70 | Leishmanicidal vs. leishmanistatic effect ([2]; listed as butaconazole): leishmanistatic effect
3 | Clc1ccccc1C(c1ccccc1)(c1ccccc1)n1ccnc1 [Clotrimazole] | type II binding | type II binding |  |  | 68 ± 4 | 260 ± 80 | 4,14-Dimethylzymosterol level normalized to DMSO-treated parasites [6]: 43 ± 18; 4CH2OH-LS level normalized to DMSO-treated parasites [6]: 2.3 ± 0.5; 5-Dehydroepisterol level normalized to DMSO-treated parasites [6]: 0.20 ± 0.04; 7-Dehydrodesmosterol level normalized to DMSO-treated parasites [6]: 0^d,**; 14-Methylfecosterol level normalized to DMSO-treated parasites [6]: Accumulated^a,***; 14-Methylzymosterol level normalized to DMSO-treated parasites [6]: 2.3 ± 0.4; Cholesterol (exogenous) level normalized to DMSO-treated parasites [6]: 1.1 ± 0.2; Ergosta-5,7-dienol level normalized to DMSO-treated parasites [6]: 0.79 ± 0.26; Ergostatetraenol level normalized to DMSO-treated parasites [6]: 0 ^d,**; Ergosterol level normalized to DMSO-treated parasites [6]: 0.26 ± 0.07; FF-MAS level normalized to DMSO-treated parasites [6]: Not detected; Lanosterol level normalized to DMSO-treated parasites [6]: 2.7 ± 0.9; T-MAS level normalized to DMSO-treated parasites [6]: Not detected; Zymosterol level normalized to DMSO-treated parasites ([6]; not separated from cholesta-7,24-dienol): 0.018 ± 0.006; 4-Methylzymosterol level normalized to DMSO-treated parasites ([6]; not separated from episterol and fecosterol): 0.025 ± 0.013; Cholesta-7,24-dienol level normalized to DMSO-treated parasites ([6]; not separated from zymosterol): 0.018 ± 0.006; Sensitivity of CYP5122A1 mutants compared with Ld1S WT [7]: no significant differences; Growth inhibition of intracellular L. major and L. amazonensis [8]: strongly inhibited the growth
4 | Clc1ccc(COC(Cn2ccnc2)c2ccc(Cl)cc2Cl)cc1 (stereo not shown) [Econazole] |  |  |  |  | 46 ± 4 | 470 ± 130 | 
5 | C[C@@H](c1nc(-c2ccc(C#N)cc2)cs1)[C@](O)(Cn1cncn1)c1cc(F)ccc1F [Isavuconazole] |  |  | 12000 | 60 | 43 ± 7 | 2600 ± 700 | 
6 | Clc1ccc(C(Cn2ccnc2)OCc2c(Cl)cccc2Cl)c(Cl)c1 (stereo not shown) [Isoconazole] |  |  | 6200 ± 500 |  |  |  | 
7 | CCC(C)n1ncn(-c2ccc(N3CCN(c4ccc(OCC5COC(Cn6cncn6)(c6ccc(Cl)cc6Cl)O5)cc4)CC3)cc2)c1=O (stereo not shown) [Itraconazole] |  |  | 6000 ± 1100 | 43 | 49 ± 9 | 2100 ± 400 | Growth compared with control [9]: < 20%
8 | Clc1ccc(COC(Cn2ccnc2)c2ccc(Cl)cc2Cl)c(Cl)c1 (stereo not shown) [Miconazole] |  |  |  |  | 57 ± 3 | 1100 ± 200 | Growth inhibition of intracellular L. major and L. amazonensis [8]: strongly inhibited the growth
9 | N=C(N)c1ccc(OCCCCCOc2ccc(C(=N)N)cc2)cc1 [Pentamidine] |  |  | 14000 ± 1000 |  |  |  | Inhibition of LdCYP5122A1 at 100 μM (LdCYP5122A1 [5]; 100 μM): No inhibition at 100 μM; Inhibition of LdCYP51 at 100 μM (LdCYP51 [10]): No inhibition at 100 μM
10 | Clc1ccc(C(Cn2ccnc2)OCc2csc3c(Cl)cccc23)c(Cl)c1 (stereo not shown) [Sertaconazole] |  |  | 7100 ± 500 | 17 | 64 ± 7 | 1100 ± 200 | 

More lines, main results first:

Row | Binding mode with CYP5122A1 (difference binding spectrum) (L. donovani CYP5122A1) | Binding mode with CYP51 (difference binding spectrum) (L. donovani CYP51) | EC50 [1] [nM] | SI (selectivity index) = IC50 against LdCYP5122A1/IC50 against LdCYP51 (LdCYP5122A1 [5]) | IC50 (LdCYP51 [3]) [nM] | IC50 (LdCYP5122A1 [4]) [nM] | SMILES | other results
11 | type I binding | typical type I binding |  |  |  |  | CC(C)=CCC[C@@H](C)[C@H]1CC[C@@]2(C)C3=C(CC[C@]12C)[C@@]1(C)CC[C@H](O)[C@@H](C)[C@@H]1CC3 [4,14-DMZ, 4α,14α-Dimethylzymosterol] | Oxidation by reconstituted CYP5122A1 (CYP5122A1): metabolized by this enzyme; Oxidation by reconstituted CYP51 (CYP51): C14-demethylation
12 | did not induce any appreciable change | atypical difference binding spectrum |  |  |  |  | CC(C)=CCC[C@@H](C)[C@H]1CC[C@H]2C3=CC=C4C[C@@H](O)CC[C@]4(C)[C@H]3CC[C@]12C [7-Dehydrodesmosterol] | Oxidation by reconstituted CYP5122A1 (CYP5122A1): No oxidation metabolite formation; Oxidation by reconstituted CYP51 (CYP51): oxidized by CYP51 to form hydroxylated metabolites
13 |  |  | 140 ± 10 |  |  |  | C[C@@H]1[C@H](O)[C@@H](C)/C=C/C=C/C=C/C=C/C=C/C=C/C=C/[C@H](O[C@@H]2O[C@H](C)[C@@H](O)[C@H](N)[C@@H]2O)C[C@@H]2O[C@](O)(C[C@@H](O)C[C@@H](O)[C@H](O)CC[C@@H](O)C[C@@H](O)CC(=O)O[C@H]1C)C[C@H](O)[C@H]2C(=O)O [Amphotericin B] | Leishmanicidal vs. leishmanistatic effect [2]: leishmanicidal effect; inhibition at 10 µM (LdCYP51 [3]; read-out: % inhibition of LdCYP51 at 10 μM): < 25%; inhibition at 10 µM (LdCYP5122A1 [4]; read-out: % inhibition of LdCYP5122A1 at 10 μM): < 25%
14 |  |  | 15000 ± 1000 | 92 | 68 ± 2 | 6200 ± 1700 | C=C1CCN([C@H](C)[C@](O)(Cn2cncn2)c2ccc(F)cc2F)CC1 [Efinaconazole] | 
15 | type I binding | did not elicit any change |  |  |  |  | CC(C)=CCC[C@@H](C)[C@H]1CC=C2C3=C(CC[C@@]21C)[C@@]1(C)CC[C@H](O)C(C)(C)[C@@H]1CC3 [FF-MAS, 14-demethyl-14-dehydrolanosterol] | Oxidation by reconstituted CYP5122A1 (CYP5122A1): metabolized by this enzyme; Oxidation by reconstituted CYP51 (CYP51): no oxidation metabolites were detected
16 |  |  | 22000 ± 6000 | 8.7 |  | 420 ± 50 | CC(=O)N1CCN(c2ccc(OCC3COC(Cn4ccnc4)(c4ccc(Cl)cc4Cl)O3)cc2)CC1 (stereo not shown) [Ketoconazole] | Growth compared with control [9]: < 20%
17 | type I binding | typical type I binding |  |  |  |  | CC(C)=CCC[C@@H](C)[C@H]1CC[C@@]2(C)C3=C(CC[C@]12C)[C@@]1(C)CC[C@H](O)C(C)(C)[C@@H]1CC3 [Lanosterol] | Oxidation by reconstituted CYP5122A1 (CYP5122A1): metabolized by this enzyme; Oxidation by reconstituted CYP51 (CYP51): C14-demethylation
18 |  |  | 12000 ± 2000 | 248 | 49 ± 8 | 12000 ± 4000 | C[C@@H](c1nc(-c2ccc(C#N)cc2)cs1)[C@](O)(Cn1cncn1)c1ccc(F)cc1F [Ravuconazole] | 
19 | type I binding | did not elicit any change |  |  |  |  | CC(C)=CCC[C@@H](C)[C@H]1CC[C@H]2C3=C(CC[C@]12C)[C@@]1(C)CC[C@H](O)C(C)(C)C1CC3 (stereo partly drawn) [T-MAS, 4,4-dimethylcholesta-8,24-dien-3β-ol] | Oxidation by reconstituted CYP5122A1 (CYP5122A1): metabolized by this enzyme; Oxidation by reconstituted CYP51 (CYP51): no oxidation metabolites were detected
20 |  |  | 13000 ± 1000 | 140 | 83 ± 9 | 12000 ± 3000 | CC(C)N1CCN(c2ccc(OCC3COC(Cn4cncn4)(c4ccc(Cl)cc4Cl)O3)cc2)CC1 (stereo not shown) [Terconazole] | 
21 | did not induce any appreciable change | atypical difference binding spectrum |  |  |  |  | CC(C)=CCC[C@@H](C)[C@H]1CC[C@H]2C3=C(CC[C@]12C)[C@@]1(C)CC[C@H](O)C[C@@H]1CC3 [Zymosterol, 5α-Cholesta-8,24-dien-3β-ol] | Oxidation by reconstituted CYP5122A1 (CYP5122A1): No oxidation metabolite formation; Oxidation by reconstituted CYP51 (CYP51): oxidized by CYP51 to form hydroxylated metabolites
